Test results reported in PubChem BioAssay AID1259407 (Chemical Carcinogenesis Research Information System (CCRIS), 2018).
Calls of active or inactive are those of the source. The rule behind the calls is not given here.

Tested on: CCRIS mutagenicity, Ames/micronucleus/aberration tests
Assay: CCRIS mutagenicity studies
[1] = Test System: AMES SALMONELLA TYPHIMURIUM, Strain/Indicator: TA98, Metabolic Activation: NONE, Method: PREINCUBATION
[2] = Test System: AMES SALMONELLA TYPHIMURIUM, Strain/Indicator: TA100, Metabolic Activation: NONE, Method: PREINCUBATION
[3] = Test System: AMES SALMONELLA TYPHIMURIUM, Strain/Indicator: TA98, Metabolic Activation: NONE, Method: STANDARD PLATE
[4] = Test System: AMES SALMONELLA TYPHIMURIUM, Strain/Indicator: TA100, Metabolic Activation: NONE, Method: STANDARD PLATE

## O=C(S)c1ccccc1
[1]
  mutagenic call: inactive; negative
Test System: AMES SALMONELLA TYPHIMURIUM, Strain/Indicator: TA98, Metabolic Activation: RAT LIVER S-9, PHENOBARBITAL AND BETA-NAPHTHOFLAVONE, Method: PREINCUBATION
  mutagenic call: inactive; negative
[2]
  mutagenic call: inactive; negative
Test System: AMES SALMONELLA TYPHIMURIUM, Strain/Indicator: TA100, Metabolic Activation: RAT LIVER S-9, PHENOBARBITAL AND BETA-NAPHTHOFLAVONE, Method: PREINCUBATION
  mutagenic call: inactive; negative
Test System: AMES SALMONELLA TYPHIMURIUM, Strain/Indicator: TA102, Metabolic Activation: NONE, Method: PREINCUBATION
  mutagenic call: inactive; negative
Test System: AMES SALMONELLA TYPHIMURIUM, Strain/Indicator: TA102, Metabolic Activation: RAT LIVER S-9, PHENOBARBITAL AND BETA-NAPHTHOFLAVONE, Method: PREINCUBATION
  mutagenic call: inactive; negative
Test System: AMES SALMONELLA TYPHIMURIUM, Strain/Indicator: TA104, Metabolic Activation: NONE, Method: PREINCUBATION
  mutagenic call: inactive; negative
Test System: AMES SALMONELLA TYPHIMURIUM, Strain/Indicator: TA104, Metabolic Activation: RAT LIVER S-9, PHENOBARBITAL AND BETA-NAPHTHOFLAVONE, Method: PREINCUBATION
  mutagenic call: inactive; negative
Test System: AMES SALMONELLA TYPHIMURIUM, Strain/Indicator: TA1535, Metabolic Activation: NONE, Method: PREINCUBATION
  mutagenic call: inactive; negative
Test System: AMES SALMONELLA TYPHIMURIUM, Strain/Indicator: TA1535, Metabolic Activation: RAT LIVER S-9, PHENOBARBITAL AND BETA-NAPHTHOFLAVONE, Method: PREINCUBATION
  mutagenic call: inactive; negative
Test System: AMES SALMONELLA TYPHIMURIUM, Strain/Indicator: TA1537, Metabolic Activation: NONE, Method: PREINCUBATION
  mutagenic call: inactive; negative
Test System: AMES SALMONELLA TYPHIMURIUM, Strain/Indicator: TA1537, Metabolic Activation: RAT LIVER S-9, PHENOBARBITAL AND BETA-NAPHTHOFLAVONE, Method: PREINCUBATION
  mutagenic call: inactive; negative
Test System: E.COLI, Strain/Indicator: WP2UVRA/PKM101, Metabolic Activation: NONE, Method: PREINCUBATION
  mutagenic call: inactive; negative
Test System: E.COLI, Strain/Indicator: WP2UVRA/PKM101, Metabolic Activation: RAT LIVER S-9, PHENOBARBITAL AND BETA-NAPHTHOFLAVONE, Method: PREINCUBATION
  mutagenic call: inactive; negative
Test System: E.COLI, Strain/Indicator: WP2UVRA, Metabolic Activation: NONE, Method: PREINCUBATION
  mutagenic call: inactive; negative
Test System: E.COLI, Strain/Indicator: WP2UVRA, Metabolic Activation: RAT LIVER S-9, PHENOBARBITAL AND BETA-NAPHTHOFLAVONE, Method: PREINCUBATION
  mutagenic call: inactive; negative

## Cc1ccc2c(c1)C(=O)c1ccccc1C2=O
Test System: AMES SALMONELLA TYPHIMURIUM, Strain/Indicator: TA97, Metabolic Activation: NONE, Method: STANDARD PLATE
  mutagenic call: inactive; negative
Test System: AMES SALMONELLA TYPHIMURIUM, Strain/Indicator: TA97, Metabolic Activation: RAT, LIVER, S-9, PCB, Method: STANDARD PLATE
  mutagenic call: inactive; negative
[1]
  mutagenic call: inactive; negative
[3]
  mutagenic call: inactive; negative
Test System: AMES SALMONELLA TYPHIMURIUM, Strain/Indicator: TA98, Metabolic Activation: RAT, LIVER, S-9, PCB, Method: PREINCUBATION
  mutagenic call: inactive; negative
Test System: AMES SALMONELLA TYPHIMURIUM, Strain/Indicator: TA98, Metabolic Activation: RAT, LIVER, S-9, PCB, Method: STANDARD PLATE
  mutagenic call: inactive; negative
[2]
  mutagenic call: inactive; negative
[4]
  mutagenic call: inactive; negative
Test System: AMES SALMONELLA TYPHIMURIUM, Strain/Indicator: TA100, Metabolic Activation: RAT, LIVER, S-9, PCB, Method: PREINCUBATION
  mutagenic call: inactive; negative
Test System: AMES SALMONELLA TYPHIMURIUM, Strain/Indicator: TA100, Metabolic Activation: RAT, LIVER, S-9, PCB, Method: STANDARD PLATE
  mutagenic call: inactive; negative

## CC(C)N(C(=O)SCC(Cl)=C(Cl)Cl)C(C)C
[3]
  mutagenic call: inactive; negative
Test System: AMES SALMONELLA TYPHIMURIUM, Strain/Indicator: TA98, Metabolic Activation: RAT, LIVER, S-9, AROCLOR 1254, Method: STANDARD PLATE
  mutagenic call: active; positive
[4]
  mutagenic call: inactive; negative
Test System: AMES SALMONELLA TYPHIMURIUM, Strain/Indicator: TA100, Metabolic Activation: RAT, LIVER, S-9, AROCLOR 1254, Method: STANDARD PLATE
  mutagenic call: active; positive
Test System: AMES SALMONELLA TYPHIMURIUM, Strain/Indicator: TA1535, Metabolic Activation: NONE, Method: STANDARD PLATE
  mutagenic call: inactive; negative
Test System: AMES SALMONELLA TYPHIMURIUM, Strain/Indicator: TA1535, Metabolic Activation: RAT, LIVER, S-9, AROCLOR 1254, Method: STANDARD PLATE
  mutagenic call: active; positive
Test System: AMES SALMONELLA TYPHIMURIUM, Strain/Indicator: TA1537, Metabolic Activation: NONE, Method: STANDARD PLATE
  mutagenic call: inactive; negative
Test System: AMES SALMONELLA TYPHIMURIUM, Strain/Indicator: TA1537, Metabolic Activation: RAT, LIVER, S-9, AROCLOR 1254, Method: STANDARD PLATE
  mutagenic call: inactive; negative
Test System: AMES SALMONELLA TYPHIMURIUM, Strain/Indicator: TA1538, Metabolic Activation: NONE, Method: STANDARD PLATE
  mutagenic call: inactive; negative
Test System: AMES SALMONELLA TYPHIMURIUM, Strain/Indicator: TA1538, Metabolic Activation: RAT, LIVER, S-9, AROCLOR 1254, Method: STANDARD PLATE
  mutagenic call: inactive; negative
